Data reported in patent US20090247646A1, “USE OF RESVERATROL AND DERIVATIVES THEREOF FOR PROMOTING THE WELLNESS STATE IN MAMMALS” (priority 2006, published 2009).
“And” between values parts separate entries of the source, which are not always exact repeats. Equal values may be shown once.

System: gene expression in heart tissue
Assay: Genome-wide gene expression in heart tissue of old mice fed a resveratrol-supplemented diet (Affymetrix Mouse Genome 430 2.0 array)
Type: in vivo
[1] = anaphase-promoting complex subunit 5, Genebank ID AK003821
[2] = calreticulin 3, Genebank ID AI324734
[3] = casein kinase II, alpha 1 polypeptide, Genebank ID BB283759
[4] = cathepsin B, Genebank ID M14222
[5] = cathepsin Z, Genebank ID NM_022325
[6] = cylindromatosis (turban tumor syndrome), Genebank ID AK013508
[7] = dual specificity phosphatase 6, Genebank ID NM_026268
[8] = dynein, cytoplasmic, heavy chain 1, Genebank ID NM_030238
[9] = dystrophia myotonica kinase, B15, Genebank ID AW108486
[10] = eukaryotic translation elongation factor 2, Genebank ID BC007152
[11] = eukaryotic translation initiation factor 2, subunit 3, structural gene X-linked, Genebank ID NM_012010
[12] = eukaryotic translation initiation factor 3, subunit 10 (theta), Genebank ID AW701127
[13] = eukaryotic translation initiation factor 4, gamma 1, Genebank ID BF227830
[14] = eukaryotic translation initiation factor 4A1, Genebank ID BI656407
[15] = eukaryotic translation initiation factor 4E like 3, Genebank ID AI449084
[16] = expressed sequence AI663987, Genebank ID BB764994
[17] = expressed sequence AW319487, Genebank ID NM_054085
[18] = f-box only protein 9, Genebank ID AK018482
[19] = f-box only protein 9, Genebank ID NM_023605
[20] = furin (paired basic amino acid cleaving enzyme), Genebank ID NM_011046
[21] = gene trap locus 6, Genebank ID BG923744
[22] = glutamyl-prolyl-tRNA synthetase, Genebank ID BM238943
[23] = golgi associated, gamma adaptin ear containing, ARF binding protein 3, Genebank ID BB501734
[24] = heat shock protein 1, beta, Genebank ID BI154147
[25] = homocysteine-inducible, endoplasmic reticulum stress-inducible, ubiquitin-like domain member 1, Genebank ID AI835088
[26] = homocysteine-inducible, endoplasmic reticulum stress-inducible, ubiquitin-like domain member 1, Genebank ID NM_022331
[27] = insulin degrading enzyme, Genebank ID AV027702
[28] = isoprenylcysteine carboxyl methyltransferase, Genebank ID BF462080
[29] = large tumor suppressor 2, Genebank ID BE986745
[30] = lipocalin 7, Genebank ID BC005738
[31] = membrane metallo endopeptidase [BLAST], Genebank ID AV174022
[32] = methionyl aminopeptidase 1, Genebank ID BG064851
[33] = microtubule associated serine/threonine kinase 2, Genebank ID NM_008641
[34] = mitochondrial ribosomal protein L9, Genebank ID AK021196
[35] = mitochondrial ribosomal protein L27, Genebank ID NM_053161
[36] = mitochondrial ribosomal protein L43, Genebank ID NM_053164
[37] = mitogen activated protein kinase kinase kinase 4, Genebank ID U11548
[38] = myotubularin related protein 1, Genebank ID BB381813
[39] = myotubularin related protein 6, Genebank ID BC020019
[40] = neural precursor cell expressed, developmentally down-regulted gene 4, Genebank ID BG073415
[41] = proteasome (prosome, macropain) subunit, alpha type 2, Genebank ID NM_008944
[42] = protein kinase inhibitor, alpha, Genebank ID AK010212
[43] = protein kinase, interferon inducible double stranded RNA dependent activator, Genebank ID NM_011871
[44] = protein phosphatase 1B, magnesium dependent, beta isoform, Genebank ID AJ271833
[45] = protein tyrosine phosphatase 4a2, Genebank ID AW495875
[46] = protein tyrosine phosphatase 4a3, Genebank ID AK014601
[47] = protein tyrosine phosphatase, non-receptor type 21, Genebank ID AW987375
[48] = protein tyrosine phosphatase-like (proline instead of catalytic arginine), member a, Genebank ID BB014781
[49] = puromycin-sensitive aminopeptidase, Genebank ID AK010446
[50] = ribonuclease P2, Genebank ID BG069849
[51] = ribosome binding protein 1, Genebank ID AK019964
[52] = ring finger protein 13, Genebank ID NM_011883
[53] = sarcolemma associated protein, Genebank ID NM_032008
[54] = serum/glucocorticoid regulated kinase, Genebank ID NM_011361
[55] = sialyltransferase 10 (alpha-2,3-sialyltransferase VI), Genebank ID NM_018784
[56] = suppressor of initiator codon mutations, related sequence 1 (S. cerevisiae), Genebank ID BI693609
[57] = synaptojanin 2 binding protein, Genebank ID AK008254
[58] = tousled-like kinase 1, Genebank ID BM244995
[59] = transferrin receptor, Genebank ID AK011596
[60] = transient receptor potential cation channel, subfamily M, member 7, Genebank ID AV320241
[61] = tumor rejection antigen gp96, Genebank ID BE995678
[62] = ubiquitin protein ligase E3 component n-recognin 1, Genebank ID BQ173927
[63] = ubiquitin specific protease 3, Genebank ID BM936366
[64] = ubiquitin specific protease 10, Genebank ID NM_009462
[65] = ubiquitin-conjugating enzyme E2D 3 (UBC4/5 homolog, yeast), Genebank ID AK009276

## Oc1ccc(/C=C/c2cc(O)cc(O)c2)cc1 [resveratrol, 3,4′,5-Trihydroxy-trans-stilbene]
Among genes changed by resveratrol treatment, heart
  share of genes that resembled or exceeded the expression level of the young group: 58.1%
[1]
  % of res effect: 74.85%
  Median RES: 33166
Basic leucine zipper and W2 domains 1, Genebank ID AV144956 (three lines), listed as RES
  Median RES: 19500 and 38679 and 25745
Basic leucine zipper and W2 domains 1, Genebank ID AV144956 (three lines), listed as res
  % of res effect: 83.81% and 115.0685% and 138.536%
calnexin, Genebank ID BI653492
  % of res effect: 100.0356%
  Median RES: 30204
[2]
  % of res effect: 114.042%
  Median RES: 8927
[3]
  % of res effect: 134.9706%
  Median RES: 5588
[4]
  % of res effect: 76.17%
  Median RES: 194089
[5]
  % of res effect: 116.4892%
  Median RES: 43097
Cullin 3, Genebank ID AV273804
  % of res effect: 77.09%
  Median RES: 22604
[6]
  % of res effect: 103.8541%
  Median RES: 8255
down-regulated in the group of old animals, resveratrol group
  expression of genes involved in protein modification: these effects were reversed
[7]
  % of res effect: 107.0693%
  Median RES: 13740
[8]
  % of res effect: 152.317%
  Median RES: 30053
[9]
  % of res effect: 145.8017%
  Median RES: 62794
[10]
  % of res effect: 164.0928%
  Median RES: 165689
[11]
  % of res effect: 52.7%
  Median RES: 10650
[12]
  % of res effect: 107.144%
  Median RES: 55723
[13]
  % of res effect: 137.7081%
  Median RES: 73196
[14]
  % of res effect: 101.3515%
  Median RES: 71501
[15]
  % of res effect: 79.59%
  Median RES: 14990
Eukaryotic translation initiation factor 4E, Genebank ID BB406487 (two lines), listed as res
  % of res effect: 101.5818% and 143.9243%
[16]
  % of res effect: 178.7778%
  Median RES: 12520
[17]
  % of res effect: 126.3056%
  Median RES: 19940
[18]
  % of res effect: 67.8%
  Median RES: 6555
[19]
  % of res effect: 158.6897%
  Median RES: 48649
[20]
  % of res effect: 190.9945%
  Median RES: 8279
[21]
  % of res effect: 134.4155%
  Median RES: 40130
[22]
  % of res effect: 85.98%
  Median RES: 16720
[23]
  % of res effect: 171.8414%
  Median RES: 5532
[24]
  % of res effect: 153.7873%
  Median RES: 150912
[25]
  % of res effect: 127.2443%
  Median RES: 90964
[26]
  % of res effect: 133.1523%
  Median RES: 107786
[27]
  % of res effect: 106.9366%
  Median RES: 25035
[28]
  % of res effect: 160.1528%
  Median RES: 6260
[29]
  % of res effect: 56.11%
  Median RES: 6754
[30]
  % of res effect: 179.6828%
  Median RES: 14280
[31]
  % of res effect: 119.1558%
  Median RES: 8513
[32]
  % of res effect: 80.68%
  Median RES: 10496
[33]
  % of res effect: 161.6802%
  Median RES: 45140
[34]
  % of res effect: 80.96%
  Median RES: 25890
[35]
  % of res effect: 182.0376%
  Median RES: 91619
[36]
  % of res effect: 104.1651%
  Median RES: 61436
[37]
  % of res effect: 124.4234%
  Median RES: 9718
[38]
  % of res effect: 78.35%
  Median RES: 14340
[39]
  % of res effect: 86.67%
  Median RES: 16336
[40]
  % of res effect: 52.89%
  Median RES: 86633
Of 1285 genes, heart
  share of age-changed genes changed in the direction of the group of younger adult mice: 45.5%
[41]
  % of res effect: 104.7586%
  Median RES: 139883
[42]
  % of res effect: 59.34%
  Median RES: 40073
[43]
  % of res effect: 171.5674%
  Median RES: 13990
[44]
  % of res effect: 63.71%
  Median RES: 52488
[45]
  % of res effect: 71.59%
  Median RES: 200548
[46]
  % of res effect: 210.2152%
  Median RES: 52165
[47]
  % of res effect: 218.6485%
  Median RES: 4135
[48]
  % of res effect: 76.7738%
  Median RES: 98966
[49]
  % of res effect: 212.0408%
  Median RES: 19697
Reduced in old animals, old animals fed resveratrol-supplemented diet
  expression of genes related to protein synthesis and protein folding: upregulated to or close to the level found in young animals
[50]
  % of res effect: 103.1963%
  Median RES: 23730
[51]
  % of res effect: 152.3511%
  Median RES: 37971
[52]
  % of res effect: 142.3463%
  Median RES: 33170
[53]
  % of res effect: 86.14%
  Median RES: 11160
serine/threonine kinase 17b (apoptosis-inducing), Genebank ID AV173139 (two lines), listed as RES
  Median RES: 8039 and 12069
serine/threonine kinase 17b (apoptosis-inducing), Genebank ID AV173139 (two lines), listed as res
  % of res effect: 97.38% and 163.165%
[54]
  % of res effect: 173.4519%
  Median RES: 72667
[55]
  % of res effect: 87.76%
  Median RES: 16650
[56]
  % of res effect: 80.5962%
  Median RES: 203121
[57]
  % of res effect: 121.5779%
  Median RES: 40710
Text b59, heart
  number of genes at a level of 80-90% compared to the young group: 62
  number of genes that reached a level of 70-80%: 53
[58]
  % of res effect: 79.5126%
  Median RES: 4589
[59]
  % of res effect: 54.0373%
  Median RES: 86773
[60]
  % of res effect: 129.8764%
  Median RES: 19508
[61]
  % of res effect: 94.11%
  Median RES: 53900
[62]
  % of res effect: 97.81%
  Median RES: 7571
[63]
  % of res effect: 151.8677%
  Median RES: 9725
[64]
  % of res effect: 186.31%
  Median RES: 12090
[65]
  % of res effect: 69.45%
  Median RES: 40250
Within the 1285 genes significantly changed between young and old mice (at least 1.25-fold, p<0.01), heart
  number of genes changed in the direction of the group of younger adult mice: 585
